Laboratory results from ChEMBL document CHEMBL3779875, “Cytotoxic Evaluation against Breast Cancer Cells of Isoliquiritigenin Analogues from Spatholobus suberectus and Their Synthetic Derivatives” (J Nat Prod, 2016).
Calls of active or inactive are those of the source. The rule behind the calls is not given here.

What was measured:
[1] = test system: MCF7; assay: Cytotoxicity against human MCF7 cells assessed as reduction in cell viability after 72 hrs by MTT assay; assay type: functional, cell-based; settings: for IC50: MCF7, 72 h
[2] = test system: MDA-MB-231; assay: Cytotoxicity against human MDA-MB-231 cells assessed as reduction in cell viability after 72 hrs by MTT assay; assay type: functional, cell-based; settings: for IC50: MDA-MB-231, 72 h

O=C(/C=C/c1ccccc1)c1ccc(O)cc1O [2',4'-DIHYDROXYCHALCONE]
IC50 [1]: > 10 µM
IC50 [2]: > 10 µM

CC(=O)O[C@H]1C(=O)[C@@]2(C)[C@H]([C@H](OC(=O)c3ccccc3)[C@]3(O)C[C@H](OC(=O)[C@H](O)[C@@H](NC(=O)c4ccccc4)c4ccccc4)C(C)=C1C3(C)C)[C@]1(OC(C)=O)CO[C@@H]1C[C@@H]2O [PACLITAXEL]
IC50 [2]: 0.0039 µM

O=C(/C=C/c1ccc(O)cc1)c1ccc(O)cc1O [ISOLIQUIRITIGENIN]
IC50 [1]: > 10 µM
IC50 [2]: > 10 µM

COc1ccc(C(=O)/C=C/c2ccc(O)c(OC)c2)c(OC)c1
IC50 [1]: 3.1 µM
IC50 [2]: > 10 µM

O=C(/C=C/c1ccc(O)cc1)c1ccc(O)cc1 [4,4'-DIHYDROXYCHALCONE]
IC50 [1]: > 10 µM
IC50 [2]: > 10 µM

O=C(/C=C/c1ccc(O)cc1)c1ccc(O)c(O)c1O
IC50 [1]: > 10 µM
IC50 [2]: > 10 µM

COc1ccc2c(c1)OC(c1ccccc1)CC2=O (stereo not given)
Activity [1]: inactive
Activity [2]: inactive

COc1ccc(/C=C/C(=O)c2ccc(OC)cc2OC)cc1 [METOCHALCONE]
IC50 [1]: 1.5 µM
IC50 [2]: 7.9 µM

O=C(/C=C/c1ccc(O)cc1)c1cc(O)ccc1O
IC50 [1]: > 10 µM
IC50 [2]: > 10 µM

COc1ccc(/C=C/C(=O)c2cc(OC)c(OC)c(OC)c2)cc1
IC50 [1]: 0.71 µM
IC50 [2]: 6.5 µM

COc1cc(/C=C/C(=O)c2ccc(OC)c(OC)c2OC)cc(OC)c1OC
IC50 [1]: > 10 µM
IC50 [2]: 7.4 µM

O=C1CC(c2ccc(O)cc2)Oc2cc(O)cc(O)c21 (stereo not given)
Activity [1]: inactive
Activity [2]: inactive

O=C(/C=C/c1ccc(O)cc1)c1c(O)cc(O)cc1O [4,2',4',6'-TETRAHYDROXYCHALCONE]
IC50 [1]: > 10 µM
IC50 [2]: > 10 µM

O=C(/C=C/c1ccc(O)cc1)c1cc(Cc2c(O)ccc(C(=O)/C=C/c3ccc(O)cc3)c2O)c(O)cc1O
IC50 [1]: > 10 µM
IC50 [2]: > 10 µM

COc1ccc(C(=O)CCc2ccccc2)c(O)c1
IC50 [1]: > 10 µM
IC50 [2]: > 10 µM

COc1cc(C(=O)/C=C/c2ccc(Cl)c(Cl)c2)cc(OC)c1OC
IC50 [1]: 7 µM
IC50 [2]: > 10 µM

O=C(CCc1ccc(O)cc1)c1ccc(O)cc1O [DAVIDIGENIN]
IC50 [1]: > 10 µM
IC50 [2]: > 10 µM

O=C(CCc1ccc(O)cc1)c1c(O)cc(O)cc1O [PHLORETIN]
IC50 [1]: > 10 µM
IC50 [2]: > 10 µM
